Data published in patent publication US11957680B2, “Pyruvate kinase activators for use in treating blood disorders” (Agios Pharmaceuticals, Inc., priority 2017, dated 2024).

Columns and labels:
wild type PKR [1] = target: T1, wild type PKR (Homo sapiens, UniProt P30613); experiment: PKR (wild type) enzyme AC50 assay, LDH/NADH-coupled, absorbance at 340 nm; assay type: biochemical; settings: for AC50: Table 2, enzyme assay, read-out: PKR WT AC50; for EC50: read-out: PKR WT
Summary of the method: (§1)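 Enzyme amount (40-400 ng/well) and substrate levels vary by PKR variant. The coupled read-out uses LDH (0.5 units) consuming NADH, tracked at 340 nm at room temperature after ADP initiation, following a one-hour compound preincubation.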

PKR R510Q = PKR R510Q (Homo sapiens, UniProt P30613, R510Q); experiment: PKR mutant assay (R510Q), AC50, LDH/NADH-coupled, absorbance at 340 nm; assay type: biochemical; settings: for AC50: Table 2, enzyme assay, read-out: PK R510Q AC50; for EC50: read-out: PK R510Q
Summary of the method: as §1

PKR K410E = PKR K410E (Homo sapiens, UniProt P30613, K410E); experiment: PKR mutant assay (K410E), AC50, LDH/NADH-coupled, absorbance at 340 nm; assay type: biochemical; settings: for AC50: Table 2, enzyme assay; for EC50: Table 4, AC50, enzyme assay
Summary of the method: as §1

wild type PKR [2] = target: T1, wild type PKR; experiment: Cell based ATP assay in purified red blood cells (Cell-Titer-Glo); design: endogenous in cells; host or cells: purified red blood cells from healthy volunteers; settings: overnight at 37° C., ATP levels; for Cell based ATP assay AC50 / AC50: Table 2, RBCs; for EC50 / Cell based ATP assay: Table 4, AC50, RBCs
Summary of the method: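 RBCs from healthy human donors' K2EDTA blood were leukocyte-depleted by filtration and resuspended in AGAM (PBS, 1% glucose, adenine, mannitol). Cells at 1×10^7 cells/mL were incubated overnight at 37 °C with serially diluted compound at 0.1% DMSO, and ATP was read by Cell-Titer-Glo luminescence.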

T1 sequence (P30613 whole entry): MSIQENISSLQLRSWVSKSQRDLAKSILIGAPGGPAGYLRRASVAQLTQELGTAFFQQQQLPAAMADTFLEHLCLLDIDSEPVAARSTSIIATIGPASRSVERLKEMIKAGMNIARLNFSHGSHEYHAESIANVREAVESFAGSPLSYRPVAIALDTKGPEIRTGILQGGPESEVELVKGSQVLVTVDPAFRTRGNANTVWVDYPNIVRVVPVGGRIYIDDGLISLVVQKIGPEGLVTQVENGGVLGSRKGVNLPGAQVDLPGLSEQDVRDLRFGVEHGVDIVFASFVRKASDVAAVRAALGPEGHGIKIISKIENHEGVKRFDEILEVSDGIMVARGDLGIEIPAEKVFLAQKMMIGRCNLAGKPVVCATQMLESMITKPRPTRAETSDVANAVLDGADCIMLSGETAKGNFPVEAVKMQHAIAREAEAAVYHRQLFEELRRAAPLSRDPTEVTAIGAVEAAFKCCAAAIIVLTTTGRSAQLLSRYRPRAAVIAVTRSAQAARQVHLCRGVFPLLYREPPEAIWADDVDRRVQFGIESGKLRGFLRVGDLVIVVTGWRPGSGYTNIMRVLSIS
Sequence of PKR R510Q (P30613 whole entry R510Q): as the sequence (P30613 whole entry) above, with R510Q counted along it
Sequence of PKR K410E (P30613 whole entry K410E): as the sequence (P30613 whole entry) above, with K410E counted along it

Compound | AC50 (wild type PKR [1]) | AC50 (PKR R510Q) | AC50 (PKR K410E) | AC50 (wild type PKR [2]) | EC50 (PKR K410E) | further results
CSc1nc2c(s1)c1cnn(Cc3cccc(S(N)(=O)=O)c3)c(=O)c1n2C [Compound 110] | > 800 nM | > 800 nM | > 800 nM |  |  | Cell based ATP assay AC50 (wild type PKR [2]): No Fit
Cc1nc2c(s1)c1cnn(Cc3cccc(C(=O)O)c3)c(=O)c1n2C [Compound 11] | > 800 nM | > 800 nM | > 800 nM |  |  | Cell based ATP assay AC50 (wild type PKR [2]): No Fit
COc1cccc(Cc2nc3c(s2)c2cnn(Cc4cccc5[nH]ncc45)c(=O)c2n3C)n1 [Compound 169] | < 300 nM | < 300 nM | < 300 nM | ≤ 1000 nM |  | 
Cn1c2nc(Cc3cncnc3)sc2c2cnn(Cc3cccc4[nH]ncc34)c(=O)c21 [Compound 153] | > 800 nM | > 800 nM | > 800 nM | ≤ 1000 nM |  | 
Cn1c2nc(Cc3cccc(N)n3)sc2c2cnn(Cc3cccc4[nH]ncc34)c(=O)c21 [Compound 276] |  |  |  |  | < 300 nM | EC50 (wild type PKR [1]; Table 4, AC50, enzyme assay): < 300 nM; EC50 (PKR R510Q; Table 4, AC50, enzyme assay): < 300 nM; EC50 (wild type PKR [2]): ≤ 1000 nM
Cn1c2nc(Cc3ncsc3Br)sc2c2cnn(Cc3cccc4[nH]ncc34)c(=O)c21 [Compound 220] |  |  |  |  | < 300 nM | EC50 (wild type PKR [1]; Table 4, AC50, enzyme assay): < 300 nM; EC50 (PKR R510Q; Table 4, AC50, enzyme assay): < 300 nM; EC50 (wild type PKR [2]): ≤ 1000 nM
Cn1c2nc(Cc3cc[nH]n3)sc2c2cnn(Cc3cccc4[nH]cnc34)c(=O)c21 [Compound 278] |  |  |  |  | < 300 nM | EC50 (wild type PKR [1]; Table 4, AC50, enzyme assay): < 300 nM; EC50 (PKR R510Q; Table 4, AC50, enzyme assay): < 300 nM; EC50 (wild type PKR [2]): ≤ 1000 nM
Cc1nc2c(s1)c1cnn(Cc3ccc4[nH]cnc4c3)c(=O)c1n2C [Compound 73] | > 800 nM | 301 to 800 nM | 301 to 800 nM | > 1000 nM |  | 
Cn1c2nc(Cc3cc[nH]n3)sc2c2cnn(Cc3cccc4[nH][nH]c(=O)c34)c(=O)c21 [Compound 307] |  |  |  |  | < 300 nM | EC50 (wild type PKR [1]; Table 4, AC50, enzyme assay): < 300 nM; EC50 (PKR R510Q; Table 4, AC50, enzyme assay): < 300 nM; EC50 (wild type PKR [2]): ≤ 1000 nM
COC(=O)C(c1ccccc1)c1nc2c(s1)c1cnn(Cc3cccc4[nH]ncc34)c(=O)c1n2C (centres unmarked) [Compound 134] | > 800 nM | 301 to 800 nM | < 300 nM | > 1000 nM |  | 
Cn1c2nc(C(N)c3cc[nH]n3)sc2c2cnn(Cc3cccc4[nH]ncc34)c(=O)c21 (centres unmarked) [Compound 177] | < 300 nM | < 300 nM | < 300 nM | ≤ 1000 nM |  | 
Cn1c2nc([S+](C)[O-])sc2c2cnn(Cc3ccc4c(c3)OCCO4)c(=O)c21 (centres unmarked) [Compound 90] | < 300 nM | < 300 nM | < 300 nM | > 1000 nM |  | 
Cn1c2nc(Cc3cc[nH]n3)sc2c2cnn(Cc3ccc4c(c3)OCCO4)c(=O)c21 [Compound 122] | < 300 nM | < 300 nM | < 300 nM | ≤ 1000 nM |  | 
Cn1c2nc(-n3cnc(CS(=O)(=O)c4ccccc4)c3)sc2c2cnn(Cc3cccc4[nH]ncc34)c(=O)c21 [Compound 187] |  |  |  |  | > 800 nM | PKR WT (wild type PKR [1]; Table 4, AC50, enzyme assay): No Fit; PK R510Q (PKR R510Q; Table 4, AC50, enzyme assay): No Fit; Cell based ATP assay (wild type PKR [2]): No Fit
COc1cccc(Cn2ncc3c4sc(CO)nc4n(C)c3c2=O)c1 [Compound 51] | < 300 nM | < 300 nM | < 300 nM | ≤ 1000 nM |  | 
Cn1c2nc(Cc3cccnc3)sc2c2cnn(Cc3cccc4[nH]ncc34)c(=O)c21 [Compound 164] | < 300 nM | < 300 nM | < 300 nM | ≤ 1000 nM |  | 
Cn1c2nc(C#N)sc2c2cnn(Cc3csc(N)n3)c(=O)c21 [Compound 145] | 301 to 800 nM | > 800 nM | 301 to 800 nM | > 1000 nM |  | 
Cn1c2nc(CC(N)=O)sc2c2cnn(Cc3cccc4[nH]ncc34)c(=O)c21 [Compound 137] | 301 to 800 nM | < 300 nM | < 300 nM | > 1000 nM |  | 
COc1cccc(Cn2ncc3c4sc(Cc5ccc(C#N)cc5)nc4n(C)c3c2=O)c1 [Compound 64] | < 300 nM | < 300 nM | < 300 nM | ≤ 1000 nM |  | 
COc1cccc(Cn2ncc3c4sc(Cc5ccccc5)nc4n(C)c3c2=O)c1 [Compound 5] | < 300 nM | < 300 nM | < 300 nM | ≤ 1000 nM |  | 
C=CCn1ncc2c3sc(Cc4ccccn4)nc3n(C)c2c1=O [Compound 398] |  |  |  |  | > 800 nM | EC50 (wild type PKR [1]; Table 4, AC50, enzyme assay): > 800 nM; EC50 (PKR R510Q; Table 4, AC50, enzyme assay): > 800 nM; Cell based ATP assay (wild type PKR [2]): No Fit
Cn1c2nc(Cc3cc[nH]n3)sc2c2cnn(Cc3ccc4c(n3)NC(=O)C4)c(=O)c21 [Compound 387] |  |  |  |  | < 300 nM | EC50 (wild type PKR [1]; Table 4, AC50, enzyme assay): 301 to 800 nM; EC50 (PKR R510Q; Table 4, AC50, enzyme assay): < 300 nM; EC50 (wild type PKR [2]): > 1000 nM
Cn1c2nc(C(C)(O)c3cc[nH]n3)sc2c2cnn(Cc3cccc4[nH]ncc34)c(=O)c21 (centres unmarked) [Compound 162] | < 300 nM | < 300 nM | < 300 nM | ≤ 1000 nM |  | 
